Assay: Hygroscopicity test (Karl-Fischer water content under accelerated storage)
Assay type: physicochemical
Settings: 1 day at 40° C. / 75% relative humidity, Petri dish without sealing
Experimental: (§1) Hygroscopicity comparison experiments were conducted on each of the crystalline free base compound (Example 1), the crystalline hydrochloride compound (Example 2), the non-crystalline free base compound (Comparative Example 1), the non-crystalline hydrochloride compound (Comparative Example 2) and various crystalline acid addition compounds (Comparative Example 3).
The test compounds were exposed in a Petri dish under accelerated storage conditions at a temperature of 40° C. and a relative humidity of 75% for 7 days without sealing. The water content of each test compound was measured using a Karl-Fischer moisture meter. Table 2 summarizes the water content (%) of each test compound measured during the storage period.

SMILES	Water content (%) 1 day
CCCc1c(-c2ccccc2)nn(-c2ccccn2)c1O [Hemi-1,5-naphthalene disulfonate, 3-phenyl-4-propyl-1-(pyridin-2-yl)-1H-pyrazol-5-ol]	0.12%
CCCc1c(-c2ccccc2)nn(-c2ccccn2)c1O [L-tartrate, 3-phenyl-4-propyl-1-(pyridin-2-yl)-1H-pyrazol-5-ol]	0.34%
CCCc1c(-c2ccccc2)nn(-c2ccccn2)c1O [L-malate, 3-phenyl-4-propyl-1-(pyridin-2-yl)-1H-pyrazol-5-ol]	1.58%
CCCc1c(-c2ccccc2)nn(-c2ccccn2)c1O [Succinate, 3-phenyl-4-propyl-1-(pyridin-2-yl)-1H-pyrazol-5-ol]	0.42%
CCCc1c(-c2ccccc2)nn(-c2ccccn2)c1O [Example 1, 3-phenyl-4-propyl-1-(pyridin-2-yl)-1H-pyrazol-5-ol]	0.29%
CCCc1c(-c2ccccc2)nn(-c2ccccn2)c1O [Comparative Example 1, 3-phenyl-4-propyl-1-(pyridin-2-yl)-1H-pyrazol-5-ol]	1.30%

Same assay, conditions: 1 day at 40° C. / 75% relative humidity, Petri dish without sealing, hydrochloride

SMILES	Water content (%) 1 day
CCCc1c(-c2ccccc2)nn(-c2ccccn2)c1O.Cl [Comparative Example 2, 3-phenyl-4-propyl-1-(pyridin-2-yl)-1H-pyrazol-5-ol hydrochloride]	1.98%
CCCc1c(-c2ccccc2)nn(-c2ccccn2)c1O.Cl [Example 2, 3-phenyl-4-propyl-1-(pyridin-2-yl)-1H-pyrazol-5-ol hydrochloride]	0.31%

Same assay, conditions: 3 days at 40° C. / 75% relative humidity, Petri dish without sealing

SMILES	Water content (%) 3 days
CCCc1c(-c2ccccc2)nn(-c2ccccn2)c1O [Hemi-1,5-naphthalene disulfonate, 3-phenyl-4-propyl-1-(pyridin-2-yl)-1H-pyrazol-5-ol]	0.13%
CCCc1c(-c2ccccc2)nn(-c2ccccn2)c1O [L-tartrate, 3-phenyl-4-propyl-1-(pyridin-2-yl)-1H-pyrazol-5-ol]	0.34%
CCCc1c(-c2ccccc2)nn(-c2ccccn2)c1O [L-malate, 3-phenyl-4-propyl-1-(pyridin-2-yl)-1H-pyrazol-5-ol]	1.75%
CCCc1c(-c2ccccc2)nn(-c2ccccn2)c1O [Succinate, 3-phenyl-4-propyl-1-(pyridin-2-yl)-1H-pyrazol-5-ol]	0.44%
CCCc1c(-c2ccccc2)nn(-c2ccccn2)c1O [Example 1, 3-phenyl-4-propyl-1-(pyridin-2-yl)-1H-pyrazol-5-ol]	0.32%
CCCc1c(-c2ccccc2)nn(-c2ccccn2)c1O [Comparative Example 1, 3-phenyl-4-propyl-1-(pyridin-2-yl)-1H-pyrazol-5-ol]	2.27%

Same assay, conditions: 3 days at 40° C. / 75% relative humidity, Petri dish without sealing, hydrochloride

SMILES	Water content (%) 3 days
CCCc1c(-c2ccccc2)nn(-c2ccccn2)c1O.Cl [Comparative Example 2, 3-phenyl-4-propyl-1-(pyridin-2-yl)-1H-pyrazol-5-ol hydrochloride]	3.54%
CCCc1c(-c2ccccc2)nn(-c2ccccn2)c1O.Cl [Example 2, 3-phenyl-4-propyl-1-(pyridin-2-yl)-1H-pyrazol-5-ol hydrochloride]	0.37%

Same assay, conditions: 7 days at 40° C. / 75% relative humidity, Petri dish without sealing

SMILES	Water content (%) 7 days
CCCc1c(-c2ccccc2)nn(-c2ccccn2)c1O [Hemi-1,5-naphthalene disulfonate, 3-phenyl-4-propyl-1-(pyridin-2-yl)-1H-pyrazol-5-ol]	0.15%
CCCc1c(-c2ccccc2)nn(-c2ccccn2)c1O [L-tartrate, 3-phenyl-4-propyl-1-(pyridin-2-yl)-1H-pyrazol-5-ol]	0.38%
CCCc1c(-c2ccccc2)nn(-c2ccccn2)c1O [L-malate, 3-phenyl-4-propyl-1-(pyridin-2-yl)-1H-pyrazol-5-ol]	2.80%
CCCc1c(-c2ccccc2)nn(-c2ccccn2)c1O [Succinate, 3-phenyl-4-propyl-1-(pyridin-2-yl)-1H-pyrazol-5-ol]	0.48%
CCCc1c(-c2ccccc2)nn(-c2ccccn2)c1O [Example 1, 3-phenyl-4-propyl-1-(pyridin-2-yl)-1H-pyrazol-5-ol]	0.34%
CCCc1c(-c2ccccc2)nn(-c2ccccn2)c1O [Comparative Example 1, 3-phenyl-4-propyl-1-(pyridin-2-yl)-1H-pyrazol-5-ol]	2.95%

Same assay, conditions: 7 days at 40° C. / 75% relative humidity, Petri dish without sealing, hydrochloride

SMILES	Water content (%) 7 days
CCCc1c(-c2ccccc2)nn(-c2ccccn2)c1O.Cl [Comparative Example 2, 3-phenyl-4-propyl-1-(pyridin-2-yl)-1H-pyrazol-5-ol hydrochloride]	7.52%
CCCc1c(-c2ccccc2)nn(-c2ccccn2)c1O.Cl [Example 2, 3-phenyl-4-propyl-1-(pyridin-2-yl)-1H-pyrazol-5-ol hydrochloride]	0.39%

Same assay, conditions: initial, before storage at 40° C. / 75% relative humidity

SMILES	Water content (%) Initial
CCCc1c(-c2ccccc2)nn(-c2ccccn2)c1O [Hemi-1,5-naphthalene disulfonate, 3-phenyl-4-propyl-1-(pyridin-2-yl)-1H-pyrazol-5-ol]	0.12%
CCCc1c(-c2ccccc2)nn(-c2ccccn2)c1O [L-tartrate, 3-phenyl-4-propyl-1-(pyridin-2-yl)-1H-pyrazol-5-ol]	0.33%
CCCc1c(-c2ccccc2)nn(-c2ccccn2)c1O [L-malate, 3-phenyl-4-propyl-1-(pyridin-2-yl)-1H-pyrazol-5-ol]	0.45%
CCCc1c(-c2ccccc2)nn(-c2ccccn2)c1O [Succinate, 3-phenyl-4-propyl-1-(pyridin-2-yl)-1H-pyrazol-5-ol]	0.37%
CCCc1c(-c2ccccc2)nn(-c2ccccn2)c1O [Example 1, 3-phenyl-4-propyl-1-(pyridin-2-yl)-1H-pyrazol-5-ol]	0.26%
CCCc1c(-c2ccccc2)nn(-c2ccccn2)c1O [Comparative Example 1, 3-phenyl-4-propyl-1-(pyridin-2-yl)-1H-pyrazol-5-ol]	0.33%

Same assay, conditions: initial, before storage at 40° C. / 75% relative humidity, hydrochloride

SMILES	Water content (%) Initial
CCCc1c(-c2ccccc2)nn(-c2ccccn2)c1O.Cl [Comparative Example 2, 3-phenyl-4-propyl-1-(pyridin-2-yl)-1H-pyrazol-5-ol hydrochloride]	0.31%
CCCc1c(-c2ccccc2)nn(-c2ccccn2)c1O.Cl [Example 2, 3-phenyl-4-propyl-1-(pyridin-2-yl)-1H-pyrazol-5-ol hydrochloride]	0.25%

Assay: Stability comparison test (long-term storage, HPLC of decomposition product of Formula 3 and total impurities)
Assay type: physicochemical
Settings: 6 months at 25° C. / 60% relative humidity
Experimental: as §1, with “Stability” for “Hygroscopicity”
The test compound was stored in a chamber for stability measurement under long-term storage conditions at a temperature of 25° C. and a relative humidity of 60% for 6 months. For storage, each test compound was placed in a double polyethylene bag, and the polyethylene bag was filled with a silica gel pouch and was then placed in a small paper box (fiber drum).
The following Table 3 summarizes the results of the measurement of the concentration of the degradation product of Formula 3 and the total impurity concentration by HPLC analysis after storage under long-term storage conditions for 6 months.
[Analytical Conditions of Liquid Chromatography (HPLC)]
Column temperature: 35° C.
Detector: UV Detector (246 nm)
Gradient condition of mobile phase: […]

SMILES	Concentration of decomposition product of Formula 3 (%) 6 months	Total impurity concentration (%) 6 months
CCCc1c(-c2ccccc2)nn(-c2ccccn2)c1O [Hemi-1,5-naphthalene disulfonate, 3-phenyl-4-propyl-1-(pyridin-2-yl)-1H-pyrazol-5-ol]	0.35%	1.24%
CCCc1c(-c2ccccc2)nn(-c2ccccn2)c1O [L-tartrate, 3-phenyl-4-propyl-1-(pyridin-2-yl)-1H-pyrazol-5-ol]	0.54%	1.85%
CCCc1c(-c2ccccc2)nn(-c2ccccn2)c1O [L-malate, 3-phenyl-4-propyl-1-(pyridin-2-yl)-1H-pyrazol-5-ol]	0.78%	3.27%
CCCc1c(-c2ccccc2)nn(-c2ccccn2)c1O [Succinate, 3-phenyl-4-propyl-1-(pyridin-2-yl)-1H-pyrazol-5-ol]	0.38%	1.65%
CCCc1c(-c2ccccc2)nn(-c2ccccn2)c1O [Example 1, 3-phenyl-4-propyl-1-(pyridin-2-yl)-1H-pyrazol-5-ol]	0.09%	0.47%
CCCc1c(-c2ccccc2)nn(-c2ccccn2)c1O [Comparative Example 1, 3-phenyl-4-propyl-1-(pyridin-2-yl)-1H-pyrazol-5-ol]	0.65%	7.58%

Same assay, conditions: 6 months at 25° C. / 60% relative humidity, hydrochloride

SMILES	Concentration of decomposition product of Formula 3 (%) 6 months	Total impurity concentration (%) 6 months
CCCc1c(-c2ccccc2)nn(-c2ccccn2)c1O.Cl [Comparative Example 2, 3-phenyl-4-propyl-1-(pyridin-2-yl)-1H-pyrazol-5-ol hydrochloride]	0.92%	5.87%
CCCc1c(-c2ccccc2)nn(-c2ccccn2)c1O.Cl [Example 2, 3-phenyl-4-propyl-1-(pyridin-2-yl)-1H-pyrazol-5-ol hydrochloride]	0.08%	0.45%

Same assay, conditions: initial

SMILES	Concentration of decomposition product of Formula 3 (%) Initial	Total impurity concentration (%) Initial
CCCc1c(-c2ccccc2)nn(-c2ccccn2)c1O [Hemi-1,5-naphthalene disulfonate, 3-phenyl-4-propyl-1-(pyridin-2-yl)-1H-pyrazol-5-ol]	0.08%	0.52%
CCCc1c(-c2ccccc2)nn(-c2ccccn2)c1O [L-tartrate, 3-phenyl-4-propyl-1-(pyridin-2-yl)-1H-pyrazol-5-ol]	0.10%	0.40%
CCCc1c(-c2ccccc2)nn(-c2ccccn2)c1O [L-malate, 3-phenyl-4-propyl-1-(pyridin-2-yl)-1H-pyrazol-5-ol]	0.12%	0.58%
CCCc1c(-c2ccccc2)nn(-c2ccccn2)c1O [Succinate, 3-phenyl-4-propyl-1-(pyridin-2-yl)-1H-pyrazol-5-ol]	0.09%	0.48%
CCCc1c(-c2ccccc2)nn(-c2ccccn2)c1O [Example 1, 3-phenyl-4-propyl-1-(pyridin-2-yl)-1H-pyrazol-5-ol]	0.05%	0.32%
CCCc1c(-c2ccccc2)nn(-c2ccccn2)c1O [Comparative Example 1, 3-phenyl-4-propyl-1-(pyridin-2-yl)-1H-pyrazol-5-ol]	0.06%	0.26%

Same assay, conditions: initial, hydrochloride

SMILES	Concentration of decomposition product of Formula 3 (%) Initial	Total impurity concentration (%) Initial
CCCc1c(-c2ccccc2)nn(-c2ccccn2)c1O.Cl [Comparative Example 2, 3-phenyl-4-propyl-1-(pyridin-2-yl)-1H-pyrazol-5-ol hydrochloride]	0.05%	0.35%
CCCc1c(-c2ccccc2)nn(-c2ccccn2)c1O.Cl [Example 2, 3-phenyl-4-propyl-1-(pyridin-2-yl)-1H-pyrazol-5-ol hydrochloride]	0.03%	0.28%

Assay: Evaluation of polymorphic transition (PXRD and DSC after storage)
Assay type: physicochemical
Settings: 4 weeks at 40° C. / 75% relative humidity in polyethylene bag
Experimental: In order to determine whether or not the polymorphic transition phenomenon occurs under the storage conditions in the crystalline free base compound (Example 1) and the crystalline hydrochloride compound (Example 2), the results of PXRD analysis in the initial state and the possibility of polymorphic transition over time were examined.
Specifically, the test compound was stored in a polyethylene bag in a chamber for stability measurement at a temperature of 40° C. and a relative humidity of 75% for 4 weeks. Also, PXRD and DSC analysis results, measured at the initial state and after 4 weeks, were compared.

SMILES	DSC endothermic temperature 4 weeks
CCCc1c(-c2ccccc2)nn(-c2ccccn2)c1O [Example 1, 3-phenyl-4-propyl-1-(pyridin-2-yl)-1H-pyrazol-5-ol]	72.8 °C
CCCc1c(-c2ccccc2)nn(-c2ccccn2)c1O.Cl [Example 2, 3-phenyl-4-propyl-1-(pyridin-2-yl)-1H-pyrazol-5-ol hydrochloride]	133.4 °C

Same assay, conditions: initial state

SMILES	DSC endothermic temperature Initial
CCCc1c(-c2ccccc2)nn(-c2ccccn2)c1O [Example 1, 3-phenyl-4-propyl-1-(pyridin-2-yl)-1H-pyrazol-5-ol]	73.54 °C
CCCc1c(-c2ccccc2)nn(-c2ccccn2)c1O.Cl [Example 2, 3-phenyl-4-propyl-1-(pyridin-2-yl)-1H-pyrazol-5-ol hydrochloride]	134.25 °C

Same assay, conditions: initial vs 4 weeks at 40° C. / 75% relative humidity; PXRD and DSC

SMILES	Comparison and determination results (polymorphic transition)
CCCc1c(-c2ccccc2)nn(-c2ccccn2)c1O [Example 1, 3-phenyl-4-propyl-1-(pyridin-2-yl)-1H-pyrazol-5-ol]	no polymorphic transition occurred

Same assay, conditions: initial vs 4 weeks at 40° C. / 75% relative humidity; PXRD and DSC; hydrochloride

SMILES	Comparison and determination results (polymorphic transition)
CCCc1c(-c2ccccc2)nn(-c2ccccn2)c1O.Cl [Example 2, 3-phenyl-4-propyl-1-(pyridin-2-yl)-1H-pyrazol-5-ol hydrochloride]	no polymorphic transition occurred

— US11174240B2, “Crystalline solid compound of 3-phenyl-4-propyl-1-(pyridin-2-yl)-1H-pyrazol-5-ol hydrochloride” (Aptabio Therapeutics Inc., priority 2017, dated 2021)
